In assay [1] the test system is 3T3-L1. In words: Insulin-sensitizing activity; triglyceride accumulation from insulin regulated differentiation of 3T3-L1 cells at 1 uM expressed as percent activity of pioglitazone. In kind it is functional, Mus musculus.
Assay [2] in a line: Insulin-releasing activity in HIT-T15 cells in the presence of 16.7 mM glucose at 10 uM expressed as percent activity of nateglinide. In kind it is functional, Cricetulus griseus.
For assay [3], the system named is 3T3-L1. The assay is described as follows: Compound was tested for insulin-sensitizing activity by measuring triglyceride accumulation from insulin regulated differentiation of 3T3-L1 cells at 10 uM expressed as percent activity of pioglitazone. In kind it is functional, Mus musculus.

Molecules are shown by their SMILES.

Consider `Cc1oc(C2CCCCC2)nc1CCOc1ccc(/C=C(\CC(=O)N2C[C@H]3CCCC[C@H]3C2)C(=O)O)cc1`, for which the Activity in the assay with 3T3-L1 [1] came out at 83%; in assay [2] it was 93%.
On to `O=C(O)/C(=C\c1ccc(OCCCc2ccc(C(F)(F)F)cc2)cc1)CC(=O)N1C[C@H]2CCCC[C@H]2C1`, for which the Activity with 3T3-L1 [1] came out at 4%; in assay [2] it was 130%.
Turning to `CCc1ccc(CCOc2ccc(C[C@@H](CC(=O)N3C[C@H]4CCCC[C@H]4C3)C(=O)O)cc2)nc1`, the Activity is 4% in the assay on 3T3-L1 [1], 11% with 3T3-L1 [3] and 105% in assay [2].
Take `O=C(O)/C(=C/c1ccc(OCCn2ccc3ccccc32)cc1)CC(=O)N1C[C@H]2CCCC[C@H]2C1`: the figures for the Activity (in the assay on 3T3-L1 [1]; in assay [2]) were 9% and 105%, respectively.
In the case of `CCc1ccc(CCOc2ccc(C[C@H](CC(=O)N3C[C@H]4CCCC[C@H]4C3)C(=O)O)cc2)nc1`, the Activity in the assay with 3T3-L1 [1] was 17%; in the assay on 3T3-L1 [3], 55%; in assay [2] it was 1%.
Take `O=C(O)/C(=C\c1ccc(OCc2ccc(C(F)(F)F)cc2)cc1)CC(=O)N1C[C@H]2CCCC[C@H]2C1`: the Activity was 15% with 3T3-L1 [1] and 130% in assay [2].
The like results for `CN(CCOc1ccc(/C=C(\CC(=O)N2C[C@H]3CCCC[C@H]3C2)C(=O)O)cc1)c1nc2ccccc2o1` were, in that order, 121% and 60%.
The matching figures for `CN(CCOc1ccc(/C=C(\CC(=O)N2C[C@H]3CCCC[C@H]3C2)C(=O)O)cc1)c1ccccn1`: 87% and 60%.
For `CCc1ccc(CCOc2ccc(/C=C(\CC(=O)N3C[C@H]4CCCC[C@H]4C3)C(=O)O)cc2)nc1`, the Activity is 20% in the assay with 3T3-L1 [1], 50% with 3T3-L1 [3] and 136% in assay [2].
For `O=C(O)/C(=C\c1ccc(OCCc2ccc(C(F)(F)F)cc2)cc1)CC(=O)N1C[C@H]2CCCC[C@H]2C1`, the values for the Activity (with 3T3-L1 [1]; in assay [2]) were 5% and 93%, respectively.
In the case of `CCc1ccc(CCOc2ccc(CC(CC(=O)N3C[C@H]4CCCC[C@H]4C3)C(=O)O)cc2)nc1` (stereo partly specified), the results for the Activity (in the assay on 3T3-L1 [1]; with 3T3-L1 [3]; in assay [2]) were 8%, 30% and 68%, respectively.
As to `Cc1oc(-c2ccncc2)nc1CCOc1ccc(/C=C(\CC(=O)N2C[C@H]3CCCC[C@H]3C2)C(=O)O)cc1`, the Activity in the assay with 3T3-L1 [1] came out at 93%; in assay [2], 49%.
The matching figures for `Cc1oc(-c2ccccc2)nc1CCOc1ccc(/C=C(\CC(=O)N2C[C@H]3CCCC[C@H]3C2)C(=O)O)cc1`: 103% and 145%.
In the case of `CCc1ccc(CCOc2ccc(CC(NC(=O)[C@H]3CC[C@H](C(C)C)CC3)C(=O)O)cc2)nc1` (stereo partly specified), the values for the Activity (in the assay on 3T3-L1 [1]; with 3T3-L1 [3]; in assay [2]) were 2%, 30% and 33%, respectively.
Consider `Cc1oc(-c2ccccc2)nc1CCOc1ccc(CC(CC(=O)N2C[C@H]3CCCC[C@H]3C2)C(=O)O)cc1` (stereo partly specified), for which the Activity in the assay on 3T3-L1 [1] is listed as 45%; in assay [2], 85%.
With `CC(C)[C@H]1CC[C@H](C(=O)N[C@H](Cc2ccccc2)C(=O)O)CC1` [NATEGLINIDE], the Activity in the assay on 3T3-L1 [1] is given as 6%; in the assay on 3T3-L1 [3], 40%; in assay [2], 100%.
The like results for `CCc1ccc(CCOc2ccc(CC3SC(=O)NC3=O)cc2)nc1` (stereo unspecified) [PIOGLITAZONE] were, in that order, 100%, 100% and 10%.
